From US20210205329A1 (The University of North Carolina at Chapel Hill, priority 2018, published 2021)

Experiments:
[1] = system: innately activated TLR4 signal in P rat VTA; assay: TLR4 signaling in P rat VTA after systemic neurosteroid (immunoblot, MCP-1 ELISA); assay type: in vivo; conditions: 15 mg/kg IP, P rats
Experimental: Immunoblotting for whole VTA lysates was done as previously described (Carlson et al, 2013). Briefly, VTA micropunches (1 mm thick) were lysed with CelLytic MT (dialyzable mild detergent, bicine, and 150 mM NaCl; Sigma-Aldrich) and protease and phosphatase inhibitor cocktail according to the manufacturer's instructions. Total protein was determined by the BCA assay. The proteins (10 μg/lane) were resolved by NuPAGE™ 4-12% Bis-Tris Midi Protein Gel (Thermo Fisher, Waltham, Mass.) electrophoresis and transferred using the iBlot 2 Dry Blotting System (Thermo Fisher, Waltham, Mass.). Blots were then exposed to an antibody for β-actin for normalization. Proteins were detected with enhanced chemilumenescence (GE Healthcare, Amersham, UK). Membranes were exposed to film under non-saturating conditions. Densitometric analysis was conducted using NIH Image 1.57.
Animals. Selectively bred, but alcohol naïve Alcohol-preferring (P) rats (male, 3-4 months old; 250-550 g) (n=7-9/group) were obtained from the Alcohol Research Center, Indiana University School of Medicine, Animals were double housed in Plexiglas cages containing corn cob bedding and food and water was available ad libitum. The colony room was maintained on a normal 12 hr light-dark cycle (light onset at 0700 hr). Procedures followed National Institutes of Health Guidelines under UNC institutional Animal Care and Use Committee approved protocols at University of North Carolina School of Medicine. Rats were habituated to handling for 7 days prior to administration of 3α,5α-THP (15 mg/kg, IP), pregnenolone (75 mg/kg, IP), 3α,5α-THDOC (15 mg/kg, IP), or vehicle (45% w/v 2-hydroxypropyl-p-cyclodextrin) and returned to their home cage. Rats were sacrificed after 45 minutes and the brain was removed and frozen at −80° C. until VTA micropunches were collected from 1 mm cryostat brain sections. This time point was selected because 3α,5α-THP is rapidly metabolized in vivo (Purdy et al, 1990), but has behavioral and pharmacological activity at this time point (Crawley et al, 1986).
ELISA. Brain tissue micropunches were lysed with Cellyte MT and the extracts were assayed for protein content by the BCA procedure (Pierce) and for MCP-1 using the rat MCP-1 ELISA kit (Raybiotech—ERC-MCP-1-CL; Norcross, Ga., USA) or for fracktalkine using the rat fractalkine ELISA kit (Raybiotech—ERC-CX3CL1-CL; Norcross, Ga., USA) as per manufacturer's instructions.
Since the neurosteroids inhibited the TLR4 activation signal in cultured macrophage cells, experiments were conducted to determine whether this also occurs in the brain. Selectively bred P rats that have an innately activated TLR4 signal in the VTA (Liu J, et al. (2011). Proc Natl Acad Sci USA 108(11): 4465-4470), were administered 3α,5α-THP (15 mg/kg, IP) or pregnenolone (75 mg/kg, IP), sacrificed after 45 minutes and examined for TLR4 signaling using parallel measures. […] 3α,5α-THP administration reduced the levels of MCP-1 by 20±9% (p<0.05), TRAF6 by 19±3% (p<0.0001), and CRF by 28±9% (p<0.01), with no effect on TLR4 protein expression (FIG. 4A). Pregnenolone administration had no effect on TRAF6, CRF, or TLR4.

[2] = system: LPS-activated TLR4 signal; assay: LPS-activated TLR4 signaling in RAW264.7 cells (immunoblotting); assay type: cell-based, mouse
Experimental: Cells and reagents. Mouse monocyte macrophage ceils (RAW264.7) that innately express the TLR4 receptor were obtained from American Type Culture Collection (Manassas, Va., USA). The cells were grown in Dulbecco's modified Eagle's medium (DMEM) (Gibco; Gaithersburg, Md., USA) supplemented with 10% fetal bovine serum (FBS, Gemini, West Sacramento, Calif., USA), 1% penicillin/streptomycin 100× (Gibco) at 37° C. in a 5% CO2 humidified atmosphere. The TLR4-specific ligand IPS was purchased from Sigma-Aldrich (St. Louis, Mo., USA) (Cat. #L3024) and added to the cultures (1 μg/ml) 24 hrs before cell collection.
Immunoblotting. The assay used for RAW264.7 cell lysates and co-immunoprecipitation was as previously described (Aurelian et al, 2016; June et al, 2015; Liu et al, 2011). RAW246.7 cells grown on T-75 flasks (n=5 flasks/group) were lysed with radioimmunoprecipitation (RIPA) buffer [20 mM Tris-HCl (pH 7.4), […], 1% Nonidet P-40 (Sigma, St. Louis, Mo., USA), 0.1% SDS (sodium dodecyl sulfate), 0.5% sodium deoxycholate] supplemented with protease and phosphatase inhibitor cocktails (Sigma). The total protein was determined by the bicinchoninic acid assay (BCA, Thermo Fisher Scientific, Waltham, Mass., USA, Cat. #23228 and Cat. #1859078). The proteins (100 μg/lane) were resolved by SDS-polyacrylamide gel electrophoresis using freshly prepared 16×18 cm gels and transferred to polyvinylidene fluoride membranes (PVDF, Bio-Rad, Cat. #162-0177). Blots were blocked with 5% Blotting-Grade Blocker (Bio-Rad, Cat. #1706404; for non-phosphorylated primary antibodies) or 5% BSA (for phosphorylated primary antibodies) for 2 hrs at room temperature (RT) and exposed to primary antibody overnight (4° C.), followed by horseradish peroxidase-labeled secondary antibodies for 1 h (room temp), immunoreactive bands were visualized with the Plus-ECL kit reagents (Perkin Elmer, Waltham, Mass., USA, Cat. #NEL105001EA) followed by exposure to high-performance chemiluminescence film (Hyperfilm ECL; Amersham). Quantitation was by densitometric scanning with a Bio-Rad GS-700 imaging densitometer. Blots were stripped and re-probed with different primary antibodies 3-5 times. Each densitometric measurement was divided by the corresponding β-Actin densitometric measurement and the results [n=5/group] are expressed as the mean β-Actin-adjusted densitometric units±SEM.
To examine whether the neurosteroids inhibit the LPS-activated TLR4 signal, RAW264.7 cells were treated with IPS (1 μg/mi; 24 hrs) in the absence or presence of 3α,5α-THP (0.5 μM, 1 μM) or pregnenolone (0.5 μM, 1 μM), and ceil extracts were assayed for expression of MyD88-dependent pathway members, by immunoblotting with antibodies to pTAK1, monocyte chemotactic protein (MCP-1), TRAF6, TLR4, and transcription factor NFκB p50 (Chattopadhyay S, et al. (2014). Cytokine Growth Factor Rev 25(5): 533-541; Irie T, et al. (2000). FEBS Lett 467(2-3): […]; Lu Y C, et al. (2008). Cytokine 42(2): 145-151).
Because the neurosteroids had relatively little effect on NFκB p50, the possibility that inhibition of other transcription factors and proinflammatory responses may be involved was considered. RAW246.7 ceils were treated as described above and protein extracts were immunoblotted with antibodies to phospho-NF-κB p65, pCREB, the proinflammatory cytokine tumor necrosis factor alpha (TNFα), and high mobility group box-1 (HMGB1), a highly conserved non-histone chromosomal protein, the translocation of which from the intra- to extra-cellular environment is a critical event in inflammatory responses. Indeed, HMGB1 is currently recognized as a cytokine secreted from activated macrophages and other inflammatory cells during the innate immune response and if is believed to function as a TLR4 ligand. […]

TLR7 signal = assay: Imiquimod-activated TLR7 signaling in RAW264.7 cells; assay type: cell-based, mouse; conditions: imiquimod 1 μg/ml for 24 hours, RAW264.7
Experimental: Because multiple TLRs signal through MD-2, […] and MyD-88, the specificity of the neurosteroid 3α,5α-THP on TLR2, TLRS and TLR7 signal activation was examined in RAW264.7 ceils (FIG. 7). Pam3Cys (10 μg/ml) activated TLR2 signaling, evidenced by increases in pCREB, pERK1/2, TRAF6 and pATF-2, that were sustained for 24 hrs and inhibited by 3α,5α-THP (1 μM) (50-60% compared to vehicle).

TLR3 signal = assay: Poly(I:C)-activated TLR3 signaling in RAW264.7 cells; assay type: cell-based, mouse; conditions: Poly-IC 25 μg/ml; 24 hrs; RAW264.7
[3] = 0.5 μM or 1 μM (concentration not assigned), RAW264.7
[4] = 1.0 μM, LPS 1 μg/ml, 24 hrs, RAW264.7

Compound: C[C@]12CC[C@@H](O)C[C@@H]1CC[C@@H]1[C@@H]2CC[C@]2(C)[C@@H](C(=O)CO)CC[C@@H]12 [3α,5α-THDOC, (3α,5α)3,21-dihydroxypregnan-20-one]
- effect on TLR4 protein expression in VTA ([1]; 45 minutes): No effect
- increase of CRF levels in VTA [1]: 39±16%
- increase of TRAF6 levels in VTA [1]: 32±12%
- effect on MCP-1 expression in VTA ([1]; ELISA): no effect
- inhibition of LPS-activated MCP-1 [2, 3]: approximately 90%
- inhibition of LPS-activated NFκB p50 [2, 3]: 30-40%
- effect on TLR4 expression ([2]; 0.5 μM or 1 μM, LPS-treated RAW264.7, 24 hrs): did not affect
- enhancement of LPS-induced TRAF6 ([2]; 0.5 μM, LPS 1 μg/ml, 24 hrs, RAW264.7): 51.6±8.3%
- enhancement of LPS-induced TRAF6 [2, 4]: 16.8±5.7%
- increase of LPS-induced pTAK1 [2, 4]: 2 fold

Compound: CC(C)Cn1cnc2c(N)nc3ccccc3c21 [imiquimod]
- increase in pIRF7 (TLR7 signal): 30%

Compound: Poly-IC
- increase in IP-10 (CXCL10) expression (TLR3 signal): 90%
